The values that follow come from patent US20030041357A1, “Herbicide resistant plants” (priority 1996, published 2003).

A value given as a limit tells only on which side of the number the result lay.

Assay [1] concerns the target GST-27 (leaf extracts of GST-27 expressing tobacco) (Zea mays, UniProt P46420). In words: In vitro HPLC assay of GST activity against herbicide substrates. The class given is biochemical. The following applies: GST-27 tobacco extracts, 5 mM glutathione, 20 ppm herbicide.
The subject of a further assay is wild-type tobacco. In words: Rooting assay on MS medium with herbicide. The class given is in vivo, Nicotiana tabacum cv Samsum. The following applies: for root growth of explants: 3 weeks, 10, 20, 40 ppm acetochlor/metolachlor, 20, 40, 100 ppm alachlor.
A further assay relates to GST-27 tobacco lines. Kind of assay: Rooting assay on MS medium with herbicide. The assay is classed as in vivo, Nicotiana tabacum cv Samsum.
Assay [2] concerns transgenic maize seedlings expressing GST-27. Kind of assay: Acetochlor-treated soil seedling test. Conditions: soil treated with 2,000 to 8,000 grams per hectare, 7 days. The assay is classed as in vivo.
Assay [3] has as its system non-transgenic maize seedlings. Kind of assay: Acetochlor-treated soil seedling test. The assay is classed as in vivo. Conditions: soil treated with 2,000 to 8,000 grams per hectare, absence of safener, 7 days.
Another assay relates to Wild Type tobacco. In words: Herbicide trial of DV6/HPPD cross (Example 10). The class given is in vivo. Conditions: 75 g/ha.
For a further assay, the system named is DV6/HPPD tobacco. Kind of assay: Herbicide trial of DV6/HPPD cross (Example 10). The class given is in vivo. The following applies: 75 g/ha.
Assay [4] has as its system maize seedlings which contain the PAT gene. Kind of assay: Glufosinate spray of maize seedlings. The assay is classed as in vivo. The following applies: commercial mix, about 0.1 to 1% active ingredient.
Assay [5] has as its system wild type tomato (cv Ailsa Craig). Kind of assay: PDS inhibitor herbicide tolerance trial. The assay is classed as in vivo.
In assay [6] the test system is transgenic tomato over-expressing the Erwinia uredovora crt1 (PDS) gene. In words: PDS inhibitor herbicide tolerance trial. Conditions: for Phytotoxity at 27 PAT: Transgenic tomato. The class given is in vivo.
For assay [7], the system named is pDV6 plants expressing both glyphosate resistance genes and GST. In words: Pre-em/post-em herbicide treatment of DV6 plants (Table 1). More on the design: species or system Tobacco. The following applies: in vivo.
Assay [8] concerns transgenic tobacco plants expressing GST-27. Kind of assay: Pre-emergence glasshouse herbicide trial. The class given is in vivo, Nicotiana tabacum cv Samsum. Conditions: 300 and 350 g/ha in 5% JF 5969.
The test system is the same in assay [9]. Kind of assay: Post-emergence glasshouse herbicide trial. The assay is classed as in vivo, Nicotiana tabacum cv Samsum. The following applies: sprayed 16 days after sowing, 5% JF 5969.
For the next assay, the system named is wild type controls. In words: Growth on herbicide-containing tissue culture medium. Conditions: 0.01 and 0.05 mM glyphosate; 10 and 40 ppm alachlor. The class given is in vivo, Tobacco.
The subject of assay [10] is primary transformants from pDV6-Bin. The description is as above. The assay is classed as in vivo, Tobacco. The following applies: a number of transgenics; 0.01 and 0.05 mM glyphosate; 10 and 40 ppm alachlor.
[11] abbreviates: line 2, pilot experiment, 2 weeks.
Where [12] appears, read: line 6, pilot experiment, 2 weeks.

GST-27 (leaf extracts of GST-27 expressing tobacco), sequence (P46420 whole entry): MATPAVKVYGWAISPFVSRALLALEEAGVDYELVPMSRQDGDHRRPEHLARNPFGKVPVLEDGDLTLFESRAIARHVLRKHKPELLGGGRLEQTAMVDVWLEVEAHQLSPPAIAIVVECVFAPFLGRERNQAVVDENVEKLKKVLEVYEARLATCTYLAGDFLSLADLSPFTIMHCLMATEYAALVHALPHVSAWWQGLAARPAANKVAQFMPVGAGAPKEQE

As to `CCc1cccc(C)c1N(C(=O)CCl)C(C)COC` (stereo not shown) [Metolachlor, metolachlor], the “GST activity against herbicide substrate (HPLC)” value in assay [1] is listed as “lowest activity”. Besides, the “root growth of explants” value with wild-type tobacco is “produces very few tiny roots at 10 and 20 ppm”; in the assay on GST-27 tobacco lines (GST-27 lines 6 and 17, 3 weeks), “produce short roots”. Also, in the assay on GST-27 tobacco lines (GST-27 line 17, 3 weeks), the rooting concentration limit entry is “more than 40 ppm”.
With `CCOCN(C(=O)CCl)c1c(C)cccc1CC` [Acetochlor, acetochlor], in [1], the “GST activity against herbicide substrate (HPLC)” value is recorded as “lowest activity”. For the same compound, the “root growth of explants” value was “do not show any rooting” with wild-type tobacco; “produce few roots at 10 and 20 ppm” with GST-27 tobacco lines (GST-27 lines 6 and 17, 3 weeks); “not as resistant” with GST-27 tobacco lines (lines 5 and 12, 3 weeks). Besides, the seedling damage entry was “little, if any damage” in assay [2] and “very substantial damage” in assay [3]. Also, the “phytotoxicity score, 21 DAT” value with Wild Type tobacco (Wild Type Rep a) came to 40; in the assay on Wild Type tobacco (Wild type Rep b) it was 100; in the assay on DV6/HPPD tobacco (DV6/HPPD Rep a), 0; with DV6/HPPD tobacco (DV6/HPPD Rep b), 0.
On to `CP(=O)(O)CCC(N)C(=O)O` (stereo not shown) [glufosinate], for which the “resistance of seedlings to spray” value in [4] is recorded as “either completely resistant to glufosinate, or are relatively tolerant of the herbicide”.
Turning to `O=C1C(Cl)C(CCl)CN1c1cccc(C(F)(F)F)c1` (stereo not shown) [Compound I], the “Phytotoxity at 27 PAT” value in [5] (333 g/ha) is on record as 0%; in [5] (1000 g/ha), 23.3%; in assay [5] (3000 g/ha) it was 100%; in [5] (9000 g/ha), 100%; in assay [6] (333 g/ha), 0%; in assay [6] (1000 g/ha), 0%. The “Phytotoxity at 27 PAT” value in assay [6] (3000 g/ha) and in assay [6] (9000 g/ha) was 0% each time. Also, the “rate to which transgenic tomatoes are highly tolerant” value in assay [6] (transgenic tomatoes) was “up to 9 kg/ha”.
Consider `CCCN(CCC)C(=O)SCC` [EPTC], for which the “% Phytotoxicity (mean, 21 DAT)” value in [7] amounted to 0%.
As for `CCC1CN(c2cccc(C(F)(F)F)c2)C(=O)C1C(=O)NC` (stereo not shown) [Compound III], the “Phytotoxity at 27 PAT” value in assay [5] (37 g/ha) is given as 0%; in assay [5] (111 g/ha), 8.3%; in [5] (333 g/ha), 56.7%; in assay [5] (1000 g/ha), 100%; in assay [6] (111 g/ha) it was 0%; in assay [6] (333 g/ha), 0%. In addition, the “Phytotoxity at 27 PAT” value in assay [6] (1000 g/ha) was 10%; in assay [6] (3000 g/ha) it was 3.3%.
As to `COc1nn(-c2cccc(C(F)(F)F)c2)/c(=N\C(=O)OC(C)C)s1` [Compound II], the “Phytotoxity at 27 PAT” value came to 3.3% in assay [5] (37 g/ha); 13.3% in assay [5] (111 g/ha); 20% in [5] (333 g/ha); 100% in [5] (1000 g/ha); 3.3% in assay [6] (111 g/ha); 0% in [6] (333 g/ha). Also, the “Phytotoxity at 27 PAT” value in assay [6] (1000 g/ha) is given as 3.3%; in assay [6] (3000 g/ha), 0%.
With `CCc1cccc(CC)c1N(COC)C(=O)CCl` [Alachlor, alachlor], the “root growth of explants” value in the assay with wild-type tobacco was “does not produce any root”; with GST-27 tobacco lines (Lines 9 and 16, 20 and 40 ppm, 3 weeks), “do not produce any roots”. Further, the “concentration from which an effect of the herbicide is observable” value is given as ≥ 1 ppm in the assay on wild-type tobacco (pilot experiment, 2 weeks); ≥ 20 ppm with GST-27 tobacco lines (setting [11]); ≥ 40 ppm in the assay with GST-27 tobacco lines (setting [12]). For the same compound, the “concentration from which plants do not produce new leaves” value with wild-type tobacco (pilot experiment, 2 weeks) is reported as ≥ 10 ppm. Besides, the “concentration up to which roots are produced” value is recorded as “up to 5 ppm” in the assay on wild-type tobacco (pilot experiment, 2 weeks); ≤ 40 ppm in the assay on GST-27 tobacco lines (GST-27 lines 6 and 17, 3 weeks); “up to 10 ppm” in the assay on GST-27 tobacco lines (setting [11]); ≤ 20 ppm in the assay on GST-27 tobacco lines (setting [12]). Moreover, the “resistance to pre-emergent application (germination scored after 3 weeks)” value in assay [8] is listed as “resistant”. Also, the “resistance to post-emergent spray (damage scored after 3 weeks)” value in assay [9] is given as “resistant”. Besides, the results for the “growth on tissue culture medium” value (with wild type controls; in assay [10]) were “fail to” and “grow successfully”, respectively.
